Key:
hGPR88 receptor = hGPR88 receptor (Homo sapiens, UniProt Q9GZN0); assay: hGPR88-HEK cAMP accumulation assay; conditions: GRP88 agonist activity (EC50), HEK-293 cells expressing human recombinant GPR88, forskolin 200 nM, High/Medium/Low bands
Protocol: Biological Assay 1: hGPR88-HEK cAMP Accumulation Assay
Cryopreserved vials of HEK-293 cells expressing human recombinant GPR88 receptor are re-suspended in KRH assay buffer and 5 μl of cell solution is suspended in test wells at a seeding density of 2500±500 cells per well using the multidrop to provide a final reaction volume of 10 μl containing 0.5% DMSO. Assay plate is incubated for 30 min at room temperature and the reaction is terminated by addition of 5 μl of each of the cAMP detection reagents of the cAMP Gi kit (Cisbio Bioassays, 62AM9PEJ), diluted in cell lysis buffer, to each well using the multidrop in the following order: first the cAMP-d2 conjugate, then the anti-cAMP cryptate conjugate. […] Raw counts were converted to cAMP concentrations via a standard curve before EC50 and Emax determination. Data is expressed as % decrease in forskolin stimulated cAMP compared to cells treated with vehicle alone in the same buffer and on the same plate.

[1] = Hepatocyte stability (mouse); type: in vitro ADME; conditions: mouse, cryopreserved pooled hepatocytes in suspension, test compound 3 μM, 60 min, read-out: Mouse heps Clint
Protocol: (iii) Hepatocyte Stability (Human, Mouse, Rat or Dog)
Test compound (3 μM) is incubated with cryopreserved hepatocytes in suspension. Samples are removed at 6 time points over the course of a 60 min experiment and test compound is analysed by LC-MS/MS. An intrinsic clearance value (CLint) with standard error and half-life (t %) are calculated. Cryopreserved pooled hepatocytes are stored in liquid nitrogen prior to use. […] The final incubation volume is 500 μL. A control incubation is included for each compound tested where lysed cells are added instead of viable cells. Two control compounds are included with each species.
The reactions are stopped by transferring 50 μL of incubate to 100 μL methanol containing internal standard at the appropriate time points. The control (lysed cells) is incubated for 60 min only. The termination plates are centrifuged at 2500 rpm at 4° C. for 30 min to precipitate the protein. Following protein precipitation, the sample supernatants are combined in cassettes of up to 4 compounds and analysed using generic LC-MS/MS conditions. From a plot of In peak area ratio (compound peak area/internal standard peak area) against time, the gradient of the line is determined. Subsequently, half-life (t %) and intrinsic clearance (CLint) are calculated using the equations below: […]

[2] = biological target: T1, dopamine uptake transporter (rat DAT) (Rattus norvegicus, UniProt P23977); assay: Dopamine transporter uptake assay; type: biochemical; conditions: rat striatum synaptosomes, [3H]dopamine
T1 construct: is determined in rat striatum synaptosomes following [^3H]dopamine scintillation counting; from tissue; host or cells: rat striatum synaptosomes
T1 sequence (P23977 whole entry): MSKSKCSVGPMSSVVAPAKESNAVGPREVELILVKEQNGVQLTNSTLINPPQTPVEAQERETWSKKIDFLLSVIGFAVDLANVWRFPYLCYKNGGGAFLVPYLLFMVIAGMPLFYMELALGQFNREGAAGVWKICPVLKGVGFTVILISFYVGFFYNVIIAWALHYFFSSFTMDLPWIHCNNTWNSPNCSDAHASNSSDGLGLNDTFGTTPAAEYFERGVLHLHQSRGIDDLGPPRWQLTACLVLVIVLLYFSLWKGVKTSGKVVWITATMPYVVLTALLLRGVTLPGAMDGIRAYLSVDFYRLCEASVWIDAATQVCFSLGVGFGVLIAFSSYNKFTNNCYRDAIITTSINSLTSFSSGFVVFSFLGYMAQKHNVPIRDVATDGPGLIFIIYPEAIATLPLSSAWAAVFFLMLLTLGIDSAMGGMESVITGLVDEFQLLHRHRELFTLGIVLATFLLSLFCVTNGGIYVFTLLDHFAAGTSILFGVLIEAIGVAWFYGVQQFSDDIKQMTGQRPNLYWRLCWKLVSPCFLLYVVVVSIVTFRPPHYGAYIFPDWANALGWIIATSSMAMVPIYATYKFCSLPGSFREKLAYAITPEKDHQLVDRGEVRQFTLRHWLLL

hGPR88 receptor, sequence (Q9GZN0 whole entry): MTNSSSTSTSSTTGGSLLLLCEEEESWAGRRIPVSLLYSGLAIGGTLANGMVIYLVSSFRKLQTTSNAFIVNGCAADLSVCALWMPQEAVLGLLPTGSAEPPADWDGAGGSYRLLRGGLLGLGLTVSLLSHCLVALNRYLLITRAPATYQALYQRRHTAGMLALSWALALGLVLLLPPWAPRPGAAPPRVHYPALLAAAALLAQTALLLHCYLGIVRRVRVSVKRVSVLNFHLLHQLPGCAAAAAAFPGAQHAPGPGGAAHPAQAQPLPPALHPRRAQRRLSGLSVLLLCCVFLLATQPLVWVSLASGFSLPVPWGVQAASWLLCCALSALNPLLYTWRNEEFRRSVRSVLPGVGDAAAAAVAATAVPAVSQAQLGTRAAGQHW

Row | Structure (SMILES) | EC50 (hGPR88 receptor) [nM] | hepatocyte CLint at 3 μM [1] [µL/min/1e6 cells] | Inhibition of dopamine uptake transporter (% inhibition at 10 μM compound) ([2]; 10 µM) [% inhibition] | Inhibition of dopamine uptake transporter (% inhibition at 10 μM compound) [2] [% inhibition]
1 | COCc1ccc(-c2ccc(NC(=O)C3CC3c3ccccn3)cc2)cc1 (racemic) [Example 1, (rac-trans)-N-(4′-(methoxymethyl)-[1,1′-biphenyl]-4-yl)-2-(pyridin-2-yl)cyclo propane-1-carboxamide] | < 1000 | 65 | 11 | –
2 | COCc1ccc(-c2ccc(NC(=O)C(C)(C)Oc3ccc(F)cc3)cc2)cc1 [Example 2, 2-(4-fluorophenoxy)-N-(4′-(methoxymethyl)-[1,1′-biphenyl]-4-yl)-2-methylpropanamide] | < 1000 | 54 | – | 3
3 | O=C(Nc1ccc(-c2ccc(OC3CC3)cc2)cc1)C1CC1c1ccccn1 (racemic) [Example 87, (rac-trans)-N-(4′-cyclopropoxy-[1,1′-biphenyl]-4-yl)-2-(pyridin-2-yl)cyclopropane-1-carboxamide] | < 1000 | 31 | – | 1
